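Cultured in 96-well plates, cells were exposed to test compound for 48 hours across five concentrations. The concentration for 50% growth inhibition is given as GI50. Definition used: TGI = concentration required for complete inhibition of growth.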
Key:
Experiment in all cases: NCI tumour cell line growth inhibition, 48 h
HS 578T breast = test system: HS 578T breast
T-47D breast = test system: T-47D breast
SK-OV-3 ovarian = test system: SK-OV-3 ovarian
SK-MEL-5 melanoma = test system: SK-MEL-5 melanoma
HCT-15 colon = test system: HCT-15 colon
KM12 colon = test system: KM12 colon
SF-268 CNS = test system: SF-268 CNS
SNB-19 CNS = test system: SNB-19 CNS
NCI-H226 lung = test system: NCI-H226 lung
HOP-92 NSCLC = test system: HOP-92 NSCLC
CCRF-CEM leukemia = test system: CCRF-CEM leukemia
HL-60(TB) leukemia = test system: HL-60(TB) leukemia
M14 melanoma = test system: M14 melanoma
TK-10 renal = test system: TK-10 renal
SK-MEL-28 melanoma = test system: SK-MEL-28 melanoma
ACHN renal = test system: ACHN renal
HCC-2998 colon = test system: HCC-2998 colon
SF-539 CNS = test system: SF-539 CNS
RPMI-8226 leukemia = test system: RPMI-8226 leukemia
EKVX NSCLC = test system: EKVX NSCLC
PC-3 prostate = test system: PC-3 prostate
SNB-75 CNS = test system: SNB-75 CNS
NCI-H460 lung = test system: NCI-H460 lung
A498 renal = test system: A498 renal
SN12C renal = test system: SN12C renal
U251 CNS = test system: U251 CNS
SW-620 colon = test system: SW-620 colon
DU-145 prostate = test system: DU-145 prostate
MDA-MB-231 breast = test system: MDA-MB-231 breast

SMILES: CC1CN=C(c2cccc(-c3ccc(-c4ccccc4)o3)c2)N1 (configuration not stated)
- GI50 (HS 578T breast): 2.57 µM
- TGI (HS 578T breast): 7.26 µM
- GI50 (T-47D breast): 1.92 µM
- TGI (T-47D breast): 5.05 µM
- GI50 (SK-OV-3 ovarian): 4.2 µM
- TGI (SK-OV-3 ovarian): 14.8 µM
- GI50 (SK-MEL-5 melanoma): 1.71 µM
- TGI (SK-MEL-5 melanoma): 3.11 µM
- GI50 (HCT-15 colon): 1.66 µM
- TGI (HCT-15 colon): 3.47 µM
- GI50 (KM12 colon): 2.66 µM
- TGI (KM12 colon): 7.92 µM
- GI50 (SF-268 CNS): 1.83 µM
- TGI (SF-268 CNS): 3.78 µM
- GI50 (SNB-19 CNS): 2.29 µM
- TGI (SNB-19 CNS): 5.47 µM
- GI50 (NCI-H226 lung): 14.3 µM
- TGI (NCI-H226 lung): 39.4 µM
- GI50 (HOP-92 NSCLC): 2.13 µM
- TGI (HOP-92 NSCLC): 5.67 µM
- GI50 (CCRF-CEM leukemia): 2.44 µM
- TGI (CCRF-CEM leukemia): 6.78 µM
- GI50 (HL-60(TB) leukemia): 2.28 µM
- TGI (HL-60(TB) leukemia): 4.7 µM
- GI50 (M14 melanoma): 2.23 µM
- TGI (M14 melanoma): 5.63 µM
- GI50 (TK-10 renal): 4.04 µM
- TGI (TK-10 renal): 14.4 µM
- GI50 (SK-MEL-28 melanoma): 1.81 µM
- TGI (SK-MEL-28 melanoma): 4.02 µM
- GI50 (ACHN renal): 1.85 µM
- TGI (ACHN renal): 3.89 µM
- GI50 (HCC-2998 colon): 1.95 µM
- TGI (HCC-2998 colon): 3.65 µM
- GI50 (SF-539 CNS): 1.76 µM
- TGI (SF-539 CNS): 3.42 µM
- GI50 (RPMI-8226 leukemia): 2.43 µM
- TGI (RPMI-8226 leukemia): 7.05 µM
- GI50 (EKVX NSCLC): 4.35 µM
- TGI (EKVX NSCLC): 18.9 µM
- GI50 (PC-3 prostate): 2.04 µM
- TGI (PC-3 prostate): 5.17 µM
- GI50 (SNB-75 CNS): 1.47 µM
- TGI (SNB-75 CNS): 2.84 µM
- GI50 (NCI-H460 lung): 1.83 µM
- TGI (NCI-H460 lung): 4.24 µM
- GI50 (A498 renal): 2.74 µM
- TGI (A498 renal): 10.6 µM
- GI50 (SN12C renal): 3.59 µM
- TGI (SN12C renal): 15.4 µM
- GI50 (U251 CNS): 2.47 µM
- TGI (U251 CNS): 5.88 µM
- GI50 (SW-620 colon): 1.85 µM
- TGI (SW-620 colon): 3.69 µM
- GI50 (DU-145 prostate): 4.05 µM
- TGI (DU-145 prostate): 15.8 µM
- GI50 (MDA-MB-231 breast): 2.2 µM
